Measurements published in PubChem BioAssay AID2060502 (Molecular Pharmacology Branch, DTP, NCI, 2025).

System: 885724-159-R-J1-PDC complex spheroid viability
Test: Anticancer human tumor 885724-159-R-J1-PDC patient-derived pancreatic adenocarcinoma cell line growth inhibition [GQUAD]
Conditions: for IC50: curve of first compound; for viability, T/C: stronger effect = lower value
Procedure, shortened: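 Viability of tumor cells grown as complex spheroids with endothelial and stromal cells, exposed to drug combinations. Top concentration at or near clinical Cmax (else 10 microM), diluted in half-log increments.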

[1] = second compound 0.0316 µM, first compound 0.0316 µM
[2] = second compound 0.0316 µM, first compound 0.1 µM
[3] = second compound 0.0316 µM, first compound 0.316 µM
[4] = second compound 0.0316 µM, first compound 1 µM
[5] = second compound 0.0316 µM, first compound 3.16 µM
[6] = second compound 0.0316 µM, first compound 10 µM
[7] = second compound 0.1 µM, first compound 0.0316 µM
[8] = second compound 0.1 µM, first compound 0.1 µM
[9] = second compound 0.1 µM, first compound 0.316 µM
[10] = second compound 0.1 µM, first compound 1 µM
[11] = second compound 0.1 µM, first compound 3.16 µM
[12] = second compound 0.1 µM, first compound 10 µM
[13] = second compound 0.316 µM, first compound 0.0316 µM
[14] = second compound 0.316 µM, first compound 0.1 µM
[15] = second compound 0.316 µM, first compound 0.316 µM
[16] = second compound 0.316 µM, first compound 1 µM
[17] = second compound 0.316 µM, first compound 3.16 µM
[18] = second compound 0.316 µM, first compound 10 µM
[19] = second compound 1 µM, first compound 0.0316 µM
[20] = second compound 1 µM, first compound 0.1 µM
[21] = second compound 1 µM, first compound 0.316 µM
[22] = second compound 1 µM, first compound 1 µM
[23] = second compound 1 µM, first compound 3.16 µM
[24] = second compound 1 µM, first compound 10 µM
[25] = second compound 3.16 µM, first compound 0.0316 µM
[26] = second compound 3.16 µM, first compound 0.1 µM
[27] = second compound 3.16 µM, first compound 0.316 µM
[28] = second compound 3.16 µM, first compound 1 µM
[29] = second compound 3.16 µM, first compound 3.16 µM
[30] = second compound 3.16 µM, first compound 10 µM
[31] = second compound 10 µM, first compound 0.0316 µM
[32] = second compound 10 µM, first compound 0.1 µM
[33] = second compound 10 µM, first compound 0.316 µM
[34] = second compound 10 µM, first compound 1 µM
[35] = second compound 10 µM, first compound 3.16 µM
[36] = second compound 10 µM, first compound 10 µM
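Further: spheroids exposed to agents for seven days before readout.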
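Wherever viability, T/C is given: percent of vehicle control viability where 100% = DMSO wells.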

Molecule `CC1COCCN1c1cc(C2(O)CC3CCC(C2)O3)c2cnn(-c3ccn[nH]3)c2n1` (stereo unspecified) + Cc1cnc(CNC(=O)c2c(=O)c3ccc(N4CCCN(C)CC4)nc3n3c2sc2ccccc23)cn1 has an IC50 (second compound 0.0316 µM) of 1.12 µM, an IC50 (second compound 0.1 µM) of 1.14 µM and an IC50 (second compound 0.316 µM) of 0.986 µM. The IC50 (second compound 1 µM) was 0.293 µM, the IC50 (second compound 3.16 µM) was 0.184 µM and the IC50 (second compound 10 µM) was 0.196 µM. For the same molecule, the viability, T/C [1] was 96.9%, the viability, T/C [2] was 71% and the viability, T/C [3] was 63.3%. It also gave a viability, T/C [4] of 52.9%, a viability, T/C [5] of 42.7% and a viability, T/C [6] of 30.8%. The viability, T/C [7] was 91.1%, the viability, T/C [8] was 83.7% and the viability, T/C [9] was 68.3%. For the same molecule, the viability, T/C [10] was 51.4%, the viability, T/C [11] was 37.8% and the viability, T/C [12] was 27.9%. The viability, T/C [13] was 83.8%, the viability, T/C [14] was 81.5% and the viability, T/C [15] was 68.5%. The viability, T/C [16] was 48%, the viability, T/C [17] was 35% and the viability, T/C [18] was 22.4%. The viability, T/C [19] was 79.7%, the viability, T/C [20] was 59.3% and the viability, T/C [21] was 48.7%. The viability, T/C [22] was 39.1%, the viability, T/C [23] was 27.5% and the viability, T/C [24] was 17.9%. The viability, T/C [25] was 72.1%, the viability, T/C [26] was 56.5% and the viability, T/C [27] was 43.8%. For the same molecule, the viability, T/C [28] was 32.4%, the viability, T/C [29] was 19% and the viability, T/C [30] was 13.8%. For the same molecule, the viability, T/C [31] was 61.5%, the viability, T/C [32] was 59.2% and the viability, T/C [33] was 43.4%. It also gave a viability, T/C [34] of 30.1%, a viability, T/C [35] of 19.1% and a viability, T/C [36] of 12.4%.
`CC1COCCN1c1cc(C2(S(C)(=N)=O)CC2)nc(-c2ccnc3[nH]ccc23)n1` (stereo unspecified) + Cc1[nH]c2ccc(F)cc2c1-c1nc2c3cccnc3c3ncccc3c2[nH]1 was tested, and the IC50 (second compound 0.0316 µM) was > 10 µM, the IC50 (second compound 0.1 µM) was > 10 µM and the IC50 (second compound 0.316 µM) was > 10 µM. The IC50 (second compound 1 µM) was > 10 µM, the IC50 (second compound 3.16 µM) was 0.137 µM and the IC50 (second compound 10 µM) was > 10 µM. It also gave a viability, T/C [1] of 105%, a viability, T/C [2] of 113% and a viability, T/C [3] of 103%. It also gave a viability, T/C [4] of 90.3%, a viability, T/C [5] of 95.7% and a viability, T/C [6] of 76.2%. The viability, T/C [7] was 110%, the viability, T/C [8] was 103% and the viability, T/C [9] was 95.7%. It also gave a viability, T/C [10] of 103%, a viability, T/C [11] of 77.2% and a viability, T/C [12] of 68.1%. It also gave a viability, T/C [13] of 90.3%, a viability, T/C [14] of 99.9% and a viability, T/C [15] of 93.6%. The viability, T/C [16] was 93.6%, the viability, T/C [17] was 92.4% and the viability, T/C [18] was 67.6%. It also gave a viability, T/C [19] of 81.8%, a viability, T/C [20] of 72.5% and a viability, T/C [21] of 78.8%. It also gave a viability, T/C [22] of 68.7%, a viability, T/C [23] of 66.6% and a viability, T/C [24] of 64.1%. It also gave a viability, T/C [25] of 62.5%, a viability, T/C [26] of 43.8% and a viability, T/C [27] of 56%. For the same molecule, the viability, T/C [28] was 36.3%, the viability, T/C [29] was 48.3% and the viability, T/C [30] was 36%. For the same molecule, the viability, T/C [31] was 68.1%, the viability, T/C [32] was 77.2% and the viability, T/C [33] was 67.5%. For the same molecule, the viability, T/C [34] was 74.3%, the viability, T/C [35] was 61.1% and the viability, T/C [36] was 54.7%.
For `CC1COCCN1c1cc(C2(S(C)(=N)=O)CC2)nc(-c2ccnc3[nH]ccc23)n1` (stereo unspecified) + CN(C)c1ccc(Nc2c3ccc(NC(=O)CCN4CCCC4)cc3nc3cc(NC(=O)CCN4CCCC4)ccc23)cc1, the IC50 (second compound 0.0316 µM) was > 10 µM, the IC50 (second compound 0.1 µM) was > 10 µM and the IC50 (second compound 0.316 µM) was > 10 µM. The IC50 (second compound 1 µM) was > 10 µM, the IC50 (second compound 3.16 µM) was > 10 µM and the IC50 (second compound 10 µM) was > 10 µM. For the same molecule, the viability, T/C [1] was 102%, the viability, T/C [2] was 106% and the viability, T/C [3] was 98.1%. For the same molecule, the viability, T/C [4] was 98.6%, the viability, T/C [5] was 69.1% and the viability, T/C [6] was 79.6%. It also gave a viability, T/C [7] of 87.7%, a viability, T/C [8] of 93.7% and a viability, T/C [9] of 82%. For the same molecule, the viability, T/C [10] was 87%, the viability, T/C [11] was 79.3% and the viability, T/C [12] was 75.3%. It also gave a viability, T/C [13] of 84.5%, a viability, T/C [14] of 89.6% and a viability, T/C [15] of 92.3%. The viability, T/C [16] was 75%, the viability, T/C [17] was 80% and the viability, T/C [18] was 63.9%. It also gave a viability, T/C [19] of 89.4%, a viability, T/C [20] of 74.3% and a viability, T/C [21] of 76.3%. For the same molecule, the viability, T/C [22] was 73.2%, the viability, T/C [23] was 76.8% and the viability, T/C [24] was 53%. The viability, T/C [25] was 76.3%, the viability, T/C [26] was 65.1% and the viability, T/C [27] was 65.3%. For the same molecule, the viability, T/C [28] was 64%, the viability, T/C [29] was 73% and the viability, T/C [30] was 51.6%. For the same molecule, the viability, T/C [31] was 71.9%, the viability, T/C [32] was 81.8% and the viability, T/C [33] was 85.4%. The viability, T/C [34] was 67%, the viability, T/C [35] was 71.9% and the viability, T/C [36] was 63%.
